Experimental data: patent publication US9884832B2 (priority 2011, dated 2018)
Read-outs that look alike come from different tables or passages of the source.

What was measured:
[1] = biological target: AM2 S31N (serine→asparagine mutation at residue 31 in the M2 protein) (Influenza A virus, UniProt P0DOF5, S31N); type: cell-based, influenza virus A/Udorn/72
[2] = biological target: AM2 V27A (valine→alanine mutation at residue 27 in the M2 protein) (Influenza A virus, UniProt P0DOF5, V27A); type: cell-based, influenza virus A/Udorn/72

SMILES | S31N OOcyte Inhibition at 100 uM (%) ([1]; pH 5.5) | S31N OOcyte Inhibition at 100 uM (%) [1] | other results
CC(=O)c1sccc1-c1ccc(CNC23CC4CC(CC(C4)C2)C3)cc1 [Example 43, 1-(3-(4-((Adamantan-1-ylamino)methyl)phenyl)thiophen-2-yl)ethanone] | A (key: (A)=31-95%; (B)=0-30%) | – | V27A OOcyte Inhibition at 100 uM (%) ([2]; pH 5.5): A (key: (A)=31-95%; (B)=0-30%)
c1cc(-c2nnn[nH]2)ccc1CNC12CC3CC(CC(C3)C1)C2 [Example 15, Adamantan-1-yl-[4-(1H-tetrazol-5-yl)-benzyl]amine] | B (key: (A)=31-95%; (B)=0-30%) | – | V27A OOcyte Inhibition at 100 uM (%) ([2]; pH 5.5): B (key: (A)=31-95%; (B)=0-30%)
C[Si](C)(C)c1ccc(CNC23CC4CC(CC(C4)C2)C3)cc1 [Example 6a, Adamantan-1-yl-(4-trimethylsilanyl-benzyl)-amine] | – | A (key: (A)=31-95%; (B)=0-30%) | V27A OOcyte Inhibition at 100 uM (%) [2]: B (key: (A)=31-95%; (B)=0-30%)
OCc1ccc(CNC23CC4CC(CC(C4)C2)C3)o1 [Example 77, [5-(Adamantan-1-ylaminomethyl)-furan-2-yl]methanol] | B (key: (A)=31-95%; (B)=0-30%) | – | V27A OOcyte Inhibition at 100 uM (%) ([2]; pH 5.5): B (key: (A)=31-95%; (B)=0-30%)
c1ccc(-c2cc(CNC34CC5CC(CC(C5)C3)C4)no2)cc1 [Example 116a, N-((5-phenylisoxazol-3-yl)methyl)adamantan-1-amine] | – | A (key: (A)=31-95%; (B)=0-30%) | V27A OOcyte Inhibition at 100 uM (%) [2]: B (key: (A)=31-95%; (B)=0-30%)
c1cc(COc2ccc(CNC34CC5CC(CC(C5)C3)C4)cc2)co1 [Example 22, Adamantan-1-yl-[4-(furan-3-ylmethoxy)-benzyl]-amine] | A (key: (A)=31-95%; (B)=0-30%) | – | V27A OOcyte Inhibition at 100 uM (%) ([2]; pH 5.5): B (key: (A)=31-95%; (B)=0-30%)
Clc1ccc(/C=C/CNC23CC4CC(CC(C4)C2)C3)cc1 [Example 200a, N-((E)-3-(4-chlorophenyl)allyl)adamantan-1-amine] | – | A (key: (A)=31-95%; (B)=0-30%) | V27A OOcyte Inhibition at 100 uM (%) [2]: B (key: (A)=31-95%; (B)=0-30%)
c1cn2cc(CNC3C4CC5CC(C4)CC3C5)nc2s1 (centres unmarked) [Example 107, Adamantan-2-yl-imidazo[2,1-b]thiazol-6-ylmethyl-amine] | B (key: (A)=31-95%; (B)=0-30%) | – | V27A OOcyte Inhibition at 100 uM (%) ([2]; pH 5.5): B (key: (A)=31-95%; (B)=0-30%)
Cc1ccc(C(C)NC23CC4CC(CC(C4)C2)C3)s1 (centres unmarked) [Example 97a, N-(1-(5-methylthiophen-2-yl)ethyl)adamantan-1-amine] | – | B (key: (A)=31-95%; (B)=0-30%) | V27A OOcyte Inhibition at 100 uM (%) [2]: B (key: (A)=31-95%; (B)=0-30%)
c1cc(CNC23CC4CC(CC(C4)C2)C3)cc(-c2ccco2)c1 [Example 30a, N-(3-(Furan-2-yl)benzyl)adamantan-1-amine] | – | B (key: (A)=31-95%; (B)=0-30%) | V27A OOcyte Inhibition at 100 uM (%) [2]: A (key: (A)=31-95%; (B)=0-30%)
N#Cc1ccc(CNC23CC4CC(CC(C4)C2)C3)cc1 [Example 14, 4-(Adamantan-1-ylaminomethyl)-benzonitrile] | B (key: (A)=31-95%; (B)=0-30%) | – | V27A OOcyte Inhibition at 100 uM (%) ([2]; pH 5.5): B (key: (A)=31-95%; (B)=0-30%)
c1csc(-c2ccc(CNC3C4CC5CC(C4)CC3C5)s2)c1 (centres unmarked) [Example 205a, N-([2,2′-bithiophen]-5-ylmethyl)adamantan-2-amine] | – | A (key: (A)=31-95%; (B)=0-30%) | V27A OOcyte Inhibition at 100 uM (%) [2]: B (key: (A)=31-95%; (B)=0-30%)
Oc1cccc(CNC23CC4CC(CC(C4)C2)C3)c1O [Example 64, 3-(Adamantan-1-ylaminomethyl)-benzene-1,2-diol] | B (key: (A)=31-95%; (B)=0-30%) | – | V27A OOcyte Inhibition at 100 uM (%) ([2]; pH 5.5): A (key: (A)=31-95%; (B)=0-30%)
COc1ccc(CNC23CC4CC(CC(C4)C2)C3)cc1 [Example 16, Adamantan-1-yl-(4-methoxy-benzyl)-amine] | A (key: (A)=31-95%; (B)=0-30%) | – | V27A OOcyte Inhibition at 100 uM (%) ([2]; pH 5.5): A (key: (A)=31-95%; (B)=0-30%)
CC(C)(C)c1ccc(CNC23CC4CC(CC(C4)C2)C3)cc1 [Example 7a, N-(4-(tert-Butyl)benzyl)adamantan-1-amine methanesulfonate] | – | A (key: (A)=31-95%; (B)=0-30%) | V27A OOcyte Inhibition at 100 uM (%) [2]: B (key: (A)=31-95%; (B)=0-30%)
c1ccc(-c2ncc(CNC34CC5CC(CC(C5)C3)C4)cn2)nc1 [Example 64a, N-((2-(pyridin-2-yl)pyrimidin-5-yl)methyl)adamantan-1-amine] | – | B (key: (A)=31-95%; (B)=0-30%) | –
c1csc(-c2ccc(CNC34CC5CC(CC(C5)C3)C4)nc2)c1 [Example 55a, Adamantan-1-yl-(5-thiophen-2-yl-pyridin-2-ylmethyl)-amine] | – | A (key: (A)=31-95%; (B)=0-30%) | –
Oc1cc(-c2cccs2)ccc1CNC12CC3CC(CC(C3)C1)C2 [Example 49a] | – | B (key: (A)=31-95%; (B)=0-30%) | –
CCc1nc(CNC23CC4CC(CC(C4)C2)C3)no1 [Example 165a] | – | A (key: (A)=31-95%; (B)=0-30%) | –
COc1ncc(CNC23CC4CC(CC(C4)C2)C3)c(OC)n1 [Example 64b, N-((2,4-dimethoxypyrimidin-5-yl)methyl)adamantan-1-amine] | B (key: (A)=31-95%; (B)=0-30%) | – | –
CC(C)(C)c1ncc(CNC23CC4CC(CC(C4)C2)C3)s1 [Example 20b, N-((2-(tert-butyl)thiazol-5-yl)methyl)adamantan-1-amine] | A (key: (A)=31-95%; (B)=0-30%) | – | –

SMILES | S31N OOcyte Inhibition at 100 uM (%) ([1]; pH 5.5) | S31N OOcyte Inhibition at 100 uM (%) [1] | other results
COc1ccsc1-c1cc(CNC23CC4CC(CC(C4)C2)C3)no1 [Example 44b, N-((5-(3-methoxythiophen-2-yl)isoxazol-3-yl)methyl)adamantan-1-amine] | A (key: (A)=31-95%; (B)=0-30%) | – | –
Clc1ccc2[nH]c(CNC34CC5CC(CC(C5)C3)C4)nc2c1 [Example 181a, Adamantan-1-yl-(5-chloro-1H-benzoimidazol-2-ylmethyl)-amine] | – | A (key: (A)=31-95%; (B)=0-30%) | –
COCc1nc(CNC23CC4CC(CC(C4)C2)C3)no1 [Example 23b, N-((5-(methoxymethyl)-1,2,4-oxadiazol-3-yl)methyl)adamantan-1-amine] | A (key: (A)=31-95%; (B)=0-30%) | – | –
CSc1ccccc1-c1ccc(CNC23CC4CC(CC(C4)C2)C3)cc1 [Example 66b, Adamantan-1-yl-(2′-methylsulfanyl-biphenyl-4-ylmethyl)-amine] | A (key: (A)=31-95%; (B)=0-30%) | – | –
Nc1ncc(CNC23CC4CC(CC(C4)C2)C3)s1 [Example 93a, 5-((adamantan-1-ylamino)methyl)thiazol-2-amine] | – | B (key: (A)=31-95%; (B)=0-30%) | –
Cc1ccc(CNC23CC4CC(CC(C4)C2)C3)cc1 [Example 8a, N-(4-Methylbenzyl)adamantan-1-amine] | – | B (key: (A)=31-95%; (B)=0-30%) | –
FC(F)(F)c1cccc(-c2nc(CNC34CC5CC(CC(C5)C3)C4)no2)c1 [Example 130a, N-((5-(3-(trifluoromethyl)phenyl)-1,2,4-oxadiazol-3-yl)methyl)adamantan-1-amine] | – | A (key: (A)=31-95%; (B)=0-30%) | –
COc1ccc(-c2cc(CNC34CC5CC(CC(C5)C3)C4)no2)c(OC)c1 [Example 41b, N-((5-(2,4-dimethoxyphenyl)isoxazol-3-yl)methyl)adamantan-1-amine] | A (key: (A)=31-95%; (B)=0-30%) | – | –
Cc1cccc(-c2ncc(CNC34CC5CC(CC(C5)C3)C4)cn2)c1 [Example 63b, N-((2-mtolylpyrimidin-5-yl)methyl)adamantan-1-amine] | A (key: (A)=31-95%; (B)=0-30%) | – | –
CSc1ccc(-c2cc(CNC34CC5CC(CC(C5)C3)C4)no2)cc1 [Example 37b, N-((5-(4-(methylthio)phenyl)isoxazol-3-yl)methyl)adamantan-1-amine] | A (key: (A)=31-95%; (B)=0-30%) | – | –
c1csc(-c2ccc(CNC34CC5CC(CC(C5)C3)C4)nn2)c1 [Example 71b, Adamantan-1-yl-(6-thiophen-2-yl-pyridazin-3-ylmethyl)-amine] | A (key: (A)=31-95%; (B)=0-30%) | – | –
c1csc(-c2ccc(CNC34CC5CC(CC(C5)C3)C4)o2)c1 [Example 138a, Adamantan-1-yl-(5-thiophen-2-yl-furan-2-ylmethyl)-amine] | – | A (key: (A)=31-95%; (B)=0-30%) | –
c1csc(-c2nnc(CNC34CC5CC(CC(C5)C3)C4)o2)c1 [Example 147a, Adamantan-1-yl-(5-thiophen-2-yl-[1,3,4]oxadiazol-2-ylmethyl)-amine] | – | A (key: (A)=31-95%; (B)=0-30%) | –
c1csc(C2=NOC(CNC34CC5CC(CC(C5)C3)C4)C2)c1 (centres unmarked) [Example 168a, N-((3-(thiophen-2-yl)-4,5-dihydroisoxazol-5-yl)methyl)adamantan-1-amine] | – | A (key: (A)=31-95%; (B)=0-30%) | –
c1ccc(-c2nc(CNC34CC5CC(CC(C5)C3)C4)c[nH]2)cc1 [Example 114a, N-((2-phenyl-1H-imidazol-4-yl)methyl)adamantan-1-amine] | – | B (key: (A)=31-95%; (B)=0-30%) | –
Cn1cc(CNC23CC4CC(CC(C4)C2)C3)nn1 [Example 18b, N-((1-methyl-1H-1,2,3-triazol-4-yl)methyl)adamantan-1-amine] | B (key: (A)=31-95%; (B)=0-30%) | – | –
Cc1ccc(CNC23CC4CC(CC(C4)C2)C3)c(O)c1 [Example 51a] | – | A (key: (A)=31-95%; (B)=0-30%) | –
COc1ccc2[nH]c(CNC34CC5CC(CC(C5)C3)C4)cc2c1 [Example 182a] | – | A (key: (A)=31-95%; (B)=0-30%) | –
Cc1nnc(CNC23CC4CC(CC(C4)C2)C3)o1 [Example 17b, N-((5-methyl-1,3,4-oxadiazol-2-yl)methyl)adamantan-1-amine] | A (key: (A)=31-95%; (B)=0-30%) | – | –
c1cn(-c2ccc(CNC34CC5CC(CC(C5)C3)C4)s2)cn1 [Example 161a, N-((5-(1H-imidazol-1-yl)thiophen-2-yl)methyl)adamantan-1-amine] | – | B (key: (A)=31-95%; (B)=0-30%) | –
